Results reported in patent US4889871A, “Alkoxy-substituted dihydrobenzopyran-2-carboxylate derivatives” (G. D. Searle & Co., priority 1988, dated 1989).

Assays:
[1] = tested on: human neutrophils; assay: Modified Boyden chamber chemotaxis (LTB4, human neutrophils); format: cell-based; conditions: Neutrophil
Protocol: Human neutrophils were isolated from citrated peripheral blood using standard techniques of dextran sedimentation, followed by centrifugation on Histopaque® sterile solution (Sigma) or Ficoll-paque® (Pharmacia) and hypotonic lysis of erythrocytes. A final cell suspension of 3.4×10^6 neutrophils/ml of HEPES-buffered Hanks balanced salt solution (HBSS, pH 7.3) was added to the upper well (0.8 ml) of a modified Boyden chamber (blind well). The lower well (0.2 ml), separated by a polycarbonate membrane (Nuleopore Corp.), contained HBSS or 3×10^-8 M LTB4 in the presence of absence of test compound. Following a 90 minute incubation at 37° C. in 5% CO2 -95% air, cells from the lower well were lysed and nuclei counted in a Model S-Plus-IV Coulter Counter. Percent inhibition was calculated from cell counts corrected for random migration by subtracting the mean of the HBSS control.

[2] = molecular target: T1, LTB4 receptor (Homo sapiens, UniProt Q15722); assay: LTB4 receptor binding assay ((3H) LTB4, human neutrophils)
T1 construct: Neutrophils were purified from venous blood of normal human donors; endogenous in cells; host or cells: purified human blood neutrophils (intact cells)
Protocol: Neutrophils (4-6×10^6) in 1 ml Hanks' balanced salt solution containing 10 mM HEPES buffer (HBSS), pH 7.4 and 30 μM nordihydroguaiaretic acid were incubated with 0.6×10^-9 M (^3 H) LTB4 in the presence or absence of test compounds. The incubation was carried out at 0° C. for 45 minutes and terminated by adding 5 ml of ice-cold HBSS followed by rapid filtration of incubation mixture under vacuum through GF/C glass fiber filters. The filters were further washed with 10 ml HBSS and radioactivity was determined. Specific binding was defined as the difference between total binding and nonspecific binding which was not displaced by 10^-7 M unlabeled LTB4. All data refer to specific binding.

T1 sequence (Q15722 whole entry): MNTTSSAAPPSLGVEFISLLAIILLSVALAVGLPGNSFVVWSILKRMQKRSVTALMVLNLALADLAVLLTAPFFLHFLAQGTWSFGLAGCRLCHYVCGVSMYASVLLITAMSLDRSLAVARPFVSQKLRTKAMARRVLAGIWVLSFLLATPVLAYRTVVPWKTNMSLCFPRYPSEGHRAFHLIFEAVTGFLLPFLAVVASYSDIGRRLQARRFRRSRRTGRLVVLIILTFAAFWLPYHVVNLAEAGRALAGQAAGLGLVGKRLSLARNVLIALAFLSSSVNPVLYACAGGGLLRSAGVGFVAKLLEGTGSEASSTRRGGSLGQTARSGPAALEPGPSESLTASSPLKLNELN

CCCc1c(OCCCOc2ccc(C(C)=O)c(OC)c2CCC)ccc2c1OC(C(=O)O)CC2 (stereo not drawn) [Example 1, 7-[3-(4-acetyl-3-methoxy-2-propylphenoxy)propoxy]-3,4-dihydro-8-propyl-2H-1-benzopyran-2-carboxylic acid]
IC50 [1]: 3000 nM | inhibition at 0.3 µM ([2]; 0.75 h, read-out: LTB4 Receptor Binding (percent at stated concentration)): 50% | more potent than the --OH compound in LTB4 receptor binding ([2]; relative to Compound III where --OCH3 is replaced with --OH): about 5 ×
